{
  "source": "patent US9839614B2",
  "about": "“Nanoparticle and polymer formulations for thyroid hormone analogs, antagonists, and formulations and uses thereof” (NANOPHARMACEUTICALS LLC, priority 2009, dated 2017)",
  "key": {"[1]": {"system": "chick chorioallantoic membrane (CAM) blood vessel branching", "test": "Chorioallantoic membrane (CAM) model of angiogenesis", "assay_type": "in vivo", "procedure": "In vivo neovascularization was examined by methods described previously. 9-12 Ten-day-old chick embryos were purchased from SPAFAS (Preston, Conn.) and incubated at 37° C. with 55% relative humidity. A hypodermic needle was used to make a small hole in the shell concealing the air sac, and a second hole was made on the broad side of the egg, directly over an avascular portion of the embryonic membrane that was identified by candling. A false air sac was created beneath the second hole by the application of negative pressure at the first hole, causing the CAM to separate from the shell. A window approximately 1.0 cm^2 was cut in the shell over the dropped CAM with a small-crafts grinding wheel (Dremel, division of Emerson Electric Co.), allowing direct access to the underlying CAM. […] Sterile disks of No. 1 filter paper (Whatman International) were pretreated with 3 mg/mL cortisone acetate and 1 mmol/L PTU and air dried under sterile conditions. Thyroid hormone, hormone analogs, FGF2 or control solvents, and inhibitors were then applied to the disks and the disks allowed to dry. The disks were then suspended in PBS and placed on growing CAMs. […] At 24 hours, the MAPK cascade inhibitor PD 98059 was also added to CAMs topically by means of the filter disks.\nAfter incubation at 37° C. with 55% relative humidity for 3 days, the CAM tissue directly beneath each filter disk was resected from control and treated CAM samples. Tissues were washed 3× with PBS, placed in 35-mm Petri dishes (Nalge Nunc), and examined under an SV6 stereomicroscope (Zeiss) at X50 magnification. Digital images of CAM sections exposed to filters were collected using a 3-charge-coupled device color video camera system (Toshiba) and analyzed with Image-Pro software (Media Cybernetics). The number of vessel branch points contained in a circular region equal to the area of each filter disk were counted. One image was counted in each CAM preparation, and findings from 8 to 10 CAM preparations were analyzed for each treatment condition (thyroid hormone or analogs, FGF2, FGF2 antibody, PD 98059). In addition, each experiment was performed 3 times. The resulting angiogenesis index is the mean±SEM of new branch points."}, "[2]": {"system": "human MTC cells gene expression", "test": "RNA microarray analysis of h-MTC cells", "assay_type": "cell-based", "description": "Technical aspects of microarray studies, stringent quality control of microarray studies and statistic analysis of gene expression were as described previously. […] In brief, the array hybridization and processing, data retrieval and the analysis were carried out with standard sets of Affymetrix (Santa Clara, Calif.) equipment, software and protocols in an Affymetrix microarray core facility. RNA was extracted from cell cultures of two independent biological replicates of each experimental condition and analyzed for sample purity and integrity, using BioAnalyzer instrumentation (Agilent, Santa Clara, Calif.). Expression analysis of 54,675 transcripts was conducted for each sample, using Affymetrix HG-U133A Plus 2.0 arrays. Data retrieval and analysis was completed by MAS5.0 software. Concordant changes of gene expression for each experimental condition were determined at the statistical threshold P value, <0.01 (two-tailed t test)."}, "[3]": {"system": "GL261 murine brain tumor cells", "test": "GL261 sublethal damage repair (SLDR), split dose", "assay_type": "cell-based", "procedure": "SLDR was measured at 10% immediate survival level as determined from the acute single dose curve for both control and Tetrac-treated cells in both growth states (i.e. exponentially growing and plateau phase cells. Flasks were irradiated with one-half of the total dose and returned to the 37° C. incubator. At increasing periods of time, flasks were removed, and given the second half of the immediate 10% survival dose. Survival was measured at 0, 0.5, 1.0, 1.5, 2.0, 3.0, 4.0, 6.0, 8.0, and 10.0 hours after the initial dose.\n(§1) To investigate the effects of tetrac on SLDR and PLDR, cells were chosen that had been given a one-hour treatment with tetrac at two different times, i.e., at 70 and 270 hours post-seeding)."}, "[4]": {"system": "GL261 murine brain tumor cells", "test": "GL261 potentially lethal damage repair (PLDR)", "assay_type": "cell-based", "procedure": "PLDR was also measured using the 10% survival level in both control and Tetrac treated-cells, and was also done for both exponentially growing and plateau phase cells. The total 10% survival dose was given, and then cells were placed back into the 37° C. incubator for various periods of time. At 0, 0.5, 1.0, 1.5, 2.0, 3.0, 4.0, 6.0, 8.0, and 10.0 hours, flasks were removed, and processed for survival assessment.\nas §1"}, "GL261 cells": {"system": "GL261 cells", "test": "Cell multiplicity (CM) factor after one hour Tetrac exposure", "assay_type": "cell-based, murine", "conditions": "after one hour exposure to Tetrac", "procedure": "Cell multiplicity (CM) was determined from Giemsa stained slides by counting the number of cells per microcolony under 20× magnification. At least 400 microcolonies were counted.\nThe length of time that Tetrac biologically affected GL261 cells was also determined. To do this, the multiplicity relationship defined above was utilized. Tetrac was added to cells one hour prior to the determination of the multiplicity. After the exposure of exponentially growing GL261 cells to Tetrac, the Tetrac containing medium was removed from GL261 cells, which contained an unknown residual and fresh medium (without Tetrac) was added. As a function of time (i.e., 0, 1, 2, 3, 4, 6, 8, and 10 hours, and 1-6 days), the cells, containing an unknown residual amount of remaining Tetrac, were then processed for determination of the multiplicity index (i.e. the number of cells per microcolony)."}, "[5]": {"system": "SKN-SH, SaOS2 and MCF7 cells, drug-sensitive and -resistant", "test": "Proliferation of drug-sensitive versus drug-resistant cancer cells (MTT assay)", "assay_type": "cell-based", "conditions": "4 days", "procedure": "Drug-sensitive and -resistant SKN-SH (FIGS. 13C-D), SaOS2 (FIGS. 13A-B), and MCF7 (FIGS. 13E-F) cells were subjected to treatment with increasing concentrations of Tetrac or Doxirubicin over a period of 4 days. Cell viability was then measured by MTT assay. The data represent the average of 4 determinations±SE.\nDoxorubicin resistant SKN-SH/R, MCF7/R and SaOS2/R cells were subjected to treatment with Tetrac either alone or in combination with each of doxorubicin (Dox), etoposide (Etop), cisplatin (Cisp), or trichostatin A (TSA) at the indicated concentrations, After 4 days in cell viability was determined by the MTT assay and the data represented as average of 3 determinations±SE."}},
  "data": [
    {"smiles": "O=C(O)Cc1cc(I)c(Oc2cc(I)c(O)c(I)c2)c(I)c1", "note": "[Tetrac, tetraiodothyroacetic acid]", "values": [
      {"measurement": "Mean % Inhibition", "setting": "[1]; FGF (1.25 μg/ml) + Tetrac or analog at 10 μg/plug", "value": 85, "unit": "%"},
      {"measurement": "effect on action of T4 on angiogenesis", "setting": "[1]; Tetrac 0.1 μmol/L with T4", "value": "inhibited the action of T4"},
      {"measurement": "effect of Tetrac alone on angiogenesis", "setting": "[1]; Tetrac alone", "value": "no effect on angiogenesis"},
      {"measurement": "effect on action of T4-agarose on angiogenesis", "setting": "[1]; Tetrac with T4-agarose 0.1 μmol/L", "value": "inhibited"},
      {"measurement": "VEGFA expression", "setting": "[2]", "value": "significantly decreased expression"},
      {"measurement": "expression of apoptosis genes (CASP2, DFFA, FAF1, CASP8AP2)", "setting": "[2]", "value": "caused expression of genes associated with induction of apoptosis"},
      {"measurement": "thrombospondin (THBS1) gene expression", "setting": "[2]", "value": "concomitant increase"},
      {"measurement": "cellular repair of x-ray damage (FIG. 58)", "setting": "[3]; Tetrac 2 uM, 6 to 8 hours post-irradiation", "value": "no repair of x-ray damage"},
      {"measurement": "SLDR recovery ratio", "setting": "[3]; exponential Tetrac-treated cells, 2 hours after the first dose", "value": 1.8},
      {"measurement": "factor of reduction of SLDR", "setting": "[3]; exponential cells", "value": 1.8},
      {"measurement": "factor of decrease in cellular repair", "setting": "[3]; plateau phase cells, three hours post-irradiation", "value": "~3"},
      {"measurement": "survival relative to survival at 0 hours", "setting": "[3]; plateau phase, 3 hours after the initial dose", "value": "approximately 36%"},
      {"measurement": "factor of inhibition of PLDR", "setting": "[4]; exponential cells", "value": 1.9},
      {"measurement": "factor of decrease of PLDR expression", "setting": "[4]; plateau phase cells", "value": 3.4},
      {"measurement": "time at which 50% decrease in the CM factor was recorded", "setting": "GL261 cells", "value": 60, "unit": "h"},
      {"measurement": "anti-proliferative activity against drug-sensitive and drug-resistant cells", "setting": "[5]; MTT", "value": "equivalent anti-proliferative activity"},
      {"measurement": "cellular responses to doxorubicin, etoposide, cisplatin and TSA combined with Tetrac", "setting": "[5]; resistant cells", "value": "significantly enhanced"}
    ]}
  ]
}
